14 molecules from ChEMBL document CHEMBL3596112, “Sulfonium ions as inhibitors of the mycobacterial galactofuranosyltransferase GlfT2” (Medchemcomm, 2014) can be followed below.

Molecules are shown by their SMILES. Active and inactive are the calls of the source. The rule behind the calls is not given here.

Usually inhibition stands for the percentage by which the read-out fell short of the control.

The assay addresses T1, Galactofuranosyltransferase GlfT2 (Mycobacterium tuberculosis) (UniProt O53585).
T1 sequence (whole entry): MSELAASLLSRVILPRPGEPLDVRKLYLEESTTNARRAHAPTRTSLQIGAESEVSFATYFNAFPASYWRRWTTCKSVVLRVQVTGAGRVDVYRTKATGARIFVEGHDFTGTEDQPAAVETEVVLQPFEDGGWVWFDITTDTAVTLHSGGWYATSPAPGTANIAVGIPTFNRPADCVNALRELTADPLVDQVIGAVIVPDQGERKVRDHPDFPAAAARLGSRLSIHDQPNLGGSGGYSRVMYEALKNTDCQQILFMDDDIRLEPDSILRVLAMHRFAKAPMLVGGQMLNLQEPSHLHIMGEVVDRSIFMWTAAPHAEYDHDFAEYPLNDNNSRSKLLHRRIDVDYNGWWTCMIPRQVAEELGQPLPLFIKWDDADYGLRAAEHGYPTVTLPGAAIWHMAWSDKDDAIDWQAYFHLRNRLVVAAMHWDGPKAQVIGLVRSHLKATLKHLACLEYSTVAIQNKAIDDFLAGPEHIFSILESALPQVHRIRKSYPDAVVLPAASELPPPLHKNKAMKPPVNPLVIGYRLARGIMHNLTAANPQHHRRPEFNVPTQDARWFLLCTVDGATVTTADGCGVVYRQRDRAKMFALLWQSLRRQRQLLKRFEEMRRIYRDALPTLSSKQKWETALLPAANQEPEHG
As to the kind of experiment: Inhibition of Mycobacterium tuberculosis recombinant GlfT2 using beta-D-Galf-(1-5)-beta-D-Galf-(1-6)-beta-D-Galf-octyl as acceptor and UDP-Galf as donor substrate at 4 mM by coupled spectrophotometric assay.

As for `O=[N+]([O-])c1ccc(C[S+]2C[C@H]([C@H](O)CO)[C@H](O)C2)cc1` (some centres undefined), the inhibition entry was “inactive”.

With `CC(C)C[S+]1C[C@H]([C@H](O)CO)[C@H](O)C1` (some centres undefined), the inhibition result was “inactive”.

With `O=c1ccn([C@@H]2O[C@H](COCCC[S+]3C[C@H]([C@H](O)CO)[C@H](O)C3)[C@@H](O)[C@H]2O)c(=O)[nH]1` (some centres undefined), the inhibition entry was “inactive”.

Regarding `OC[C@@H](O)[C@H]1C[S+](CCc2ccccc2)C[C@H]1O` (some centres undefined), the inhibition entry was “inactive”.

Consider `OC[C@@H](O)[C@H]1C[S+](Cc2ccccc2)C[C@H]1O` (some centres undefined), for which the inhibition result is “inactive”.

`COCCCCCCCC[S+]1C[C@H]([C@H](O)CO)[C@H](O)C1` (some centres undefined): the inhibition result was “inactive”.

For the molecule `COCC[S+]1C[C@H]([C@H](O)CO)[C@H](O)C1` (some centres undefined), the inhibition result was “inactive”.

With `OCCCCCCCCCCCC[S+]1C[C@H]([C@H](O)CO)[C@H](O)C1` (some centres undefined), the inhibition was 60%.

As for `CCCCCCCC[S+]1C[C@H]([C@H](O)CO)[C@H](O)C1` (some centres undefined), the inhibition result was “inactive”.

Take `OCCCCCCCC[S+]1C[C@H]([C@H](O)CO)[C@H](O)C1` (some centres undefined): the inhibition entry was “inactive”.

As for `OCCC[S+]1C[C@H]([C@H](O)CO)[C@H](O)C1` (some centres undefined), the inhibition entry is “inactive”.

Turning to `CCC[S+]1C[C@H]([C@H](O)CO)[C@H](O)C1` (some centres undefined), the inhibition result is “inactive”.

As for `OC[C@@H](O)[C@H]1C[S+](CC2CCCCC2)C[C@H]1O` (some centres undefined), the inhibition result was “inactive”.

Regarding `O=c1ccn([C@@H]2O[C@H](COCCCC[S+]3C[C@H]([C@H](O)CO)[C@H](O)C3)[C@@H](O)[C@H]2O)c(=O)[nH]1` (some centres undefined), the inhibition entry is “inactive”.
